Laboratory results as given in ChEMBL document CHEMBL2157943, “Role of the side chain stereochemistry in the α-glucosidase inhibitory activity of kotalanol, a potent natural α-glucosidase inhibitor. Part 2” (Bioorg Med Chem, 2012).

Columns and labels:
[1] = target: T1, Sucrase-isomaltase, intestinal (Rattus norvegicus, UniProt P23739); test: Inhibition of rat small intestinal isomaltase after 30 mins by glucose-oxidase method
[2] = target: T1, Sucrase-isomaltase, intestinal; test: Inhibition of rat small intestinal sucrase after 30 mins by glucose-oxidase method
[3] = target: Lysosomal alpha-glucosidase (Rattus norvegicus) (UniProt Q6P7A9); settings: 100 ug/ml
Lysosomal alpha-glucosidase (Rattus norvegicus), sequence (Q6P7A9 whole entry): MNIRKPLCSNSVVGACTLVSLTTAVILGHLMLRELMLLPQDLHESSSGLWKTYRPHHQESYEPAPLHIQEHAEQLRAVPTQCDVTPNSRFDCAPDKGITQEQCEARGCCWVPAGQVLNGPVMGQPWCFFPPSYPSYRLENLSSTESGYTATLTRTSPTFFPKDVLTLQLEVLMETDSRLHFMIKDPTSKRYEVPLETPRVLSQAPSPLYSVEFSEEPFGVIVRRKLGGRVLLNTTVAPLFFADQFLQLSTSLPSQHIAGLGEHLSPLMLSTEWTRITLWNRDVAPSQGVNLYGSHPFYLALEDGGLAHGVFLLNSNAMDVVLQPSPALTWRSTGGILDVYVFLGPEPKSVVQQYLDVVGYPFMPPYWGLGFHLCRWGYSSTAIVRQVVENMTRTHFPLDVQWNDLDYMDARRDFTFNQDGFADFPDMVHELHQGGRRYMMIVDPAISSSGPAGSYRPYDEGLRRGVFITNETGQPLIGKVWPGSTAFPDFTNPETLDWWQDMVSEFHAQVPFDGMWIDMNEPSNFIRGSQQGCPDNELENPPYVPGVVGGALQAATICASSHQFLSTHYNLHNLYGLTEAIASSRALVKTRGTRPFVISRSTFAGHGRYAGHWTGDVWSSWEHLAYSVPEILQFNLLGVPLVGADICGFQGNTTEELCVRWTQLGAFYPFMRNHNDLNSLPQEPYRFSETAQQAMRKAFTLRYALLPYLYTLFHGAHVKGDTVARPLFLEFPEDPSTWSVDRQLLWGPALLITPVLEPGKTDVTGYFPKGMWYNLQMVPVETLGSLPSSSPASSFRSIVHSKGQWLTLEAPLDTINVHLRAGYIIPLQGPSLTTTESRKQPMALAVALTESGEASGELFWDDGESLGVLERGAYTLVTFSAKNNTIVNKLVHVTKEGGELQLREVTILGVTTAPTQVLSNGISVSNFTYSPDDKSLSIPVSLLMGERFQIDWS
Description: Inhibition of rat small intestinal maltase at 100 ug/ml after 30 mins by glucose-oxidase method

[4] = target: Sucrase-isomaltase, intestinal (Rattus norvegicus) (UniProt P23739); settings: 100 ug/ml
Sucrase-isomaltase, intestinal (Rattus norvegicus), sequence (P23739 1-1013 limits assumed): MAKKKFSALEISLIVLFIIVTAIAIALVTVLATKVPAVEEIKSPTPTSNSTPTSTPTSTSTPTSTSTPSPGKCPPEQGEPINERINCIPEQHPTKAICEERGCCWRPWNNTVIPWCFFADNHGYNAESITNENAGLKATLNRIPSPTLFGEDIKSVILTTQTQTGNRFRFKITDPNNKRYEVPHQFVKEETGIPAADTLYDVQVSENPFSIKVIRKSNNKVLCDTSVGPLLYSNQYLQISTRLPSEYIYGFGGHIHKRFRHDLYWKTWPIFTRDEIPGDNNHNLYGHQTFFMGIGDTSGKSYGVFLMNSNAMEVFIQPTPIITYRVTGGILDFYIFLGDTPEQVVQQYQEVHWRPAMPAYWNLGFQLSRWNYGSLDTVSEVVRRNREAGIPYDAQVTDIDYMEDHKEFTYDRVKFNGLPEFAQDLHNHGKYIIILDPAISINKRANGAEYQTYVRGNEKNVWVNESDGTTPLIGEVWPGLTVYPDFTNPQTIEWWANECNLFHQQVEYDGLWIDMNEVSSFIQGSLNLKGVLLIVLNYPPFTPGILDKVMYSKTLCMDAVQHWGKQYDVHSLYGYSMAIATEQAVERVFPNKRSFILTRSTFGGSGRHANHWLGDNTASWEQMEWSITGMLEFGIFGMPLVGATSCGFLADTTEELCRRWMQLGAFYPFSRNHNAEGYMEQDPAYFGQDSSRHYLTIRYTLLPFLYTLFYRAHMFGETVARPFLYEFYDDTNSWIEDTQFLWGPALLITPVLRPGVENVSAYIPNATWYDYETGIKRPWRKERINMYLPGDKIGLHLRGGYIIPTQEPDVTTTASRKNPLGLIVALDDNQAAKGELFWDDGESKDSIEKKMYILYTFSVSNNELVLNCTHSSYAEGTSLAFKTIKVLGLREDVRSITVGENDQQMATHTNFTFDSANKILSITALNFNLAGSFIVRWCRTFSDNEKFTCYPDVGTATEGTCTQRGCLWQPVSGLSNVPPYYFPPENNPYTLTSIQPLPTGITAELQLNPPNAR
Sucrase-isomaltase, intestinal (Rattus norvegicus), sequence (P23739 1014-1841 limits assumed): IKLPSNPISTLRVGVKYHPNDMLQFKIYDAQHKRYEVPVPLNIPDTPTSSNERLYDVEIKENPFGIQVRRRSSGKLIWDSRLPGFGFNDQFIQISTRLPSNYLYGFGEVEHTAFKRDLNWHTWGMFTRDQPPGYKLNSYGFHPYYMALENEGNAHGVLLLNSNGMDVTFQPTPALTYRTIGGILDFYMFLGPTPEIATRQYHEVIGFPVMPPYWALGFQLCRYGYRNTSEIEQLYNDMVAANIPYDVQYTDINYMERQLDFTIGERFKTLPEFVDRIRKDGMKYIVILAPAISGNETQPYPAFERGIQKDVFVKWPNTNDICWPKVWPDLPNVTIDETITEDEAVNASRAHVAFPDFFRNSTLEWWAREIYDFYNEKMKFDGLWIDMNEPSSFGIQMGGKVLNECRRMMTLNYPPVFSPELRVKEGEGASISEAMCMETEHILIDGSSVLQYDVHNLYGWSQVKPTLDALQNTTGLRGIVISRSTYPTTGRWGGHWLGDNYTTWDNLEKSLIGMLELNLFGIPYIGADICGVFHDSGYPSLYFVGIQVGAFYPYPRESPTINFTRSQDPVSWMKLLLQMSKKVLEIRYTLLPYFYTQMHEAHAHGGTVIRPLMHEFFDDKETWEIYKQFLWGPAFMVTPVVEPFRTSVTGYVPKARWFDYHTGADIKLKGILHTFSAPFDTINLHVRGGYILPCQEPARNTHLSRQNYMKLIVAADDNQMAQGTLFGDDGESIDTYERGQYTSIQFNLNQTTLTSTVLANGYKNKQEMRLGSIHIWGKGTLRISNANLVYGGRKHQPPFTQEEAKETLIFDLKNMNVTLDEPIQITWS
Description: Inhibition of rat small intestinal sucrase at 100 ug/ml after 30 mins by glucose-oxidase method

T1 sequence (P23739 1-1013 limits assumed): as the sequence (P23739 1-1013 limits assumed) above
T1 sequence (P23739 1014-1841 limits assumed): as the sequence (P23739 1014-1841 limits assumed) above

Row | SMILES | IC50 [1] [µM] | IC50 [2] [µM] | inhibition [3] [%] | inhibition [4] [%]
1 | O=S(=O)([O-])O[C@H]([C@@H](O)[C@H](O)[C@H](O)CO)[C@H](O)C[S@+]1C[C@@H](O)[C@H](O)[C@H]1CO | 58 | 55 |  | 
2 | O=S(=O)([O-])O[C@@H]([C@@H](O)[C@@H](O)[C@@H](O)CO)[C@H](O)C[S@+]1C[C@@H](O)[C@H](O)[C@H]1CO | 6.5 | 32 |  | 
3 | O=S(=O)([O-])O[C@@H]([C@@H](O)[C@H](O)[C@H](O)CO)[C@H](O)C[S@+]1C[C@@H](O)[C@H](O)[C@H]1CO | 16 | 214 | 44 | 
4 | O=S(=O)([O-])O[C@@H]([C@@H](O)[C@H](O)[C@@H](O)CO)[C@H](O)C[S@+]1C[C@@H](O)[C@H](O)[C@H]1CO | 11 | 136 | 42 | 
5 | O=S(=O)([O-])O[C@H]([C@@H](O)[C@H](O)[C@@H](O)CO)[C@H](O)C[S@+]1C[C@@H](O)[C@H](O)[C@H]1CO | 20 | > 236 | 32 | 28
6 | O=S(=O)([O-])O[C@@H]([C@@H](O)[C@@H](O)[C@H](O)CO)[C@H](O)C[S@+]1C[C@@H](O)[C@H](O)[C@H]1CO | 1.6 | 67 |  | 
7 | O=S(=O)([O-])O[C@H]([C@@H](O)[C@@H](O)[C@H](O)CO)[C@H](O)C[S@+]1C[C@@H](O)[C@H](O)[C@H]1CO (mixture of isomers) | 16 | > 236 | 25 | 8
8 | O=S(=O)([O-])O[C@H]([C@@H](O)[C@@H](O)[C@@H](O)CO)[C@H](O)C[S@+]1C[C@@H](O)[C@H](O)[C@H]1CO | 21 | > 236 | 45 | 34
